Measurements reported in patent US12391692B2, “Spiro ring-containing quinazoline compound” (WIGEN BIOMEDICINE TECHNOLOGY (SHANGHAI) CO., LTD., priority 2020, dated 2025).

Experiments:
H358 cells = assay: Antiproliferative activity against H358 cells (Cell Titer Glow, ultra-low attachment plate); assay type: cell-based; settings: Homo sapiens, NCI-H358, 72 h, three days after addition of compound
Experimental: 2500 H358 cells were seeded in a 96-well ultra-low attachment plate (corning, 7007). After one day of growth, a serially diluted compound (a maximum concentration of 5 μM, 5-fold dilution, a total of five doses) was added. Three days after the addition of the compound, Cell Titer Glow (Promega, G9681) was added to evaluate pellet growth, and the IC50 value was calculated.

pERK level in H358 cells = assay: pERK and ERK protein content assay in H358 cells (ELISA); assay type: cell-based; settings: Homo sapiens, NCI-H358, pERK/ERK ratio vs DMSO group, compound 1 μM, 24 h, read-out: Inhibition rate (%)
Experimental: H358 cells were seeded in a 24-well plate. After one day of growth, a test compound (at a concentration of 1 μM) was added. After 24 h of action of the compound, the cells were lysed, and the cell lysate was transferred to a 96-well ELISA plate. The levels of pERK and ERK in the lysate were measured using an ELISA kit (abcam 176660). The ratio of pERK to ERK was calculated and compared with that of the DMSO group, and the percentage of inhibition of pERK activity by the compound was calculated.

| SMILES | IC50 (H358 cells) | inhibition at 1 µM (pERK level in H358 cells) |
| --- | --- | --- |
| C=CC(=O)N1CC2(CCN(c3nc(N4CC(C)(N(C)C)C4)nc4c(OCC(F)(F)F)c(-c5c(C)ccc6[nH]ncc56)c(C5CC5)cc34)CC2)C1 [Compound 59] | < 300 nM | > 90% |
| C=CC(=O)N1CC2(CCN(c3nc(N4CC5(CC(=C)CN5CC)C4)nc4c(OCC(F)(F)F)c(-c5c(C)ccc6[nH]ncc56)c(C5CC5)cc34)CC2)C1 [Compound 126] | < 300 nM | > 90% |
| C=CC(=O)N1CC2(CCN(c3nc(N4CC5(CC(O)CN5CC)C4)nc4c(OCC(F)(F)F)c(-c5c(C)ccc6[nH]ncc56)c(C5CC5)cc34)CC2)C1 (stereo not shown) [Compound 122] | < 300 nM | > 90% |
| C=CCN1CCCC12CN(c1nc(N3CCC4(CC3)CN(C(=O)C=C)C4)c3cc(C4CC4)c(-c4c(C)ccc5[nH]ncc45)c(OCC(F)(F)F)c3n1)C2 [Compound 119] | < 300 nM | > 90% |
| C=CC(=O)N1CC2(CCN(c3nc(O[C@H]4C[C@H](N5CCC(F)(F)C5)C4)nc4c(OCC(F)(F)F)c(-c5c(C)ccc6[nH]ncc56)c(C5CC5)cc34)CC2)C1 [Compound 92] | > 1000 nM | 50 to 90% |
| C=CC(=O)N1CC2(CCN(c3nc(O[C@H]4C[C@@H](N5CC6(CCC6)C5)C4)nc4c(OCC(F)(F)F)c(-c5c(C)ccc6[nH]ncc56)c(C5CC5)cc34)CC2)C1 [Compound 95] | < 300 nM | > 90% |
| C=CC(=O)N1CC2(CCN(c3nc(N4CC(C(=O)N5CCN(C)CC5)C4)nc4c(OCC(F)(F)F)c(-c5c(C)ccc6[nH]ncc56)c(C5CC5)cc34)CC2)C1 [Compound 46] | < 300 nM | > 90% |
| C=CC(=O)N1CC2(CCN(c3nc(N4CC5(C=CCN5CC)C4)nc4c(OCC(F)(F)F)c(-c5c(C)ccc6[nH]ncc56)c(C5CC5)cc34)CC2)C1 [Compound 128] | < 300 nM | > 90% |
| C=CC(=O)N1CC2(CCN(c3nc(O[C@H]4C[C@H](N(C)C)C4)nc4c(OCC(F)(F)F)c(-c5c(C)ccc6[nH]ncc56)c(C5CC5)cc34)CC2)C1 [Compound 86] | 300 to 1000 nM | 50 to 90% |
| C=CC(=O)N1CC2(CCN(c3nc(N4CC5(CCN5C)C4)nc4c(OCC(F)(F)F)c(-c5c(C)ccc6[nH]ncc56)c(C5CC5)cc34)CC2)C1 [Compound 67] | < 300 nM | > 90% |
| C=CC(=O)N1CC2(CCN(c3nc(N4CC5(CC(=C)CN5C)C4)nc4c(OCC(F)(F)F)c(-c5c(C)ccc6[nH]ncc56)c(C5CC5)cc34)CC2)C1 [Compound 125] | < 300 nM | > 90% |
| C=CC(=O)N1CC2(CCN(c3nc(N4CCC(OC5CN(C)C5)CC4)nc4c(OCC(F)(F)F)c(-c5c(C)ccc6[nH]ncc56)c(C5CC5)cc34)CC2)C1 [Compound 16] | < 300 nM | > 90% |
| C=CC(=O)N1CC2(CCN(c3nc(O[C@H]4C[C@H](N5CC6(CCC6)C5)C4)nc4c(OCC(F)(F)F)c(-c5c(C)ccc6[nH]ncc56)c(C5CC5)cc34)CC2)C1 [Compound 96] | 300 to 1000 nM | > 90% |
| C=CC(=O)N1CC2(CCN(c3nc(N4CC5(CC(OC)CN5C)C4)nc4c(OCC(F)(F)F)c(-c5c(C)ccc6[nH]ncc56)c(C5CC5)cc34)CC2)C1 (stereo not shown) [Compound 123] | < 300 nM | > 90% |
| C=CC(=O)N1CC2(CCN(c3nc(N4CC(O)C4)nc4c(OCC(F)(F)F)c(-c5c(C)ccc6[nH]ncc56)c(C5CC5)cc34)CC2)C1 [Compound 2] | < 300 nM | > 90% |
| C=CC(=O)N1CC2(CCN(c3nc(N4CC(CN5CCOCC5)C4)nc4c(OCC(F)(F)F)c(-c5c(C)ccc6[nH]ncc56)c(C5CC5)cc34)CC2)C1 [Compound 8] | 300 to 1000 nM | 50 to 90% |
| C=CC(=O)N1CC2(CCN(c3nc(N4CC(CC#N)(n5ccnc5)C4)nc4c(OCC(F)(F)F)c(-c5c(C)ccc6[nH]ncc56)c(C5CC5)cc34)CC2)C1 [Compound 57] | 300 to 1000 nM | 50 to 90% |
| C=CC(=O)N1CCC2(CC1)CN(c1nc(N3CC(N4CCC5(CC5)C4)C3)nc3c(OCC(F)(F)F)c(-c4c(C)ccc5[nH]ncc45)c(C4CC4)cc13)C2 [Compound 115] | < 300 nM | > 90% |
| C=CC(=O)N1CC2(CCN(c3nc(N4CC5(C4)CC(F)(F)CN5CC)nc4c(OCC(F)(F)F)c(-c5c(C)ccc6[nH]ncc56)c(C5CC5)cc34)CC2)C1 [Compound 130] | < 300 nM | > 90% |
| C=CC(=O)N1CC2(CCN(c3nc(O[C@H]4C[C@@H](N5CC6(CC6)C5)C4)nc4c(OCC(F)(F)F)c(-c5c(C)ccc6[nH]ncc56)c(C5CC5)cc34)CC2)C1 [Compound 93] | < 300 nM | > 90% |
| C=CC(=O)N1CC2(CCN(c3nc(N4CC5(CC(OC)CN5CC)C4)nc4c(OCC(F)(F)F)c(-c5c(C)ccc6[nH]ncc56)c(C5CC5)cc34)CC2)C1 (stereo not shown) [Compound 124] | < 300 nM | > 90% |

| SMILES | IC50 (H358 cells) | inhibition at 1 µM (pERK level in H358 cells) |
| --- | --- | --- |
| C=CC(=O)N1CC2(C1)CN(c1nc(N3CC(N4CC5(CC5)C4)C3)nc3c(OCC(F)(F)F)c(-c4c(C)ccc5[nH]ncc45)c(C4CC4)cc13)C2 [Compound 101] | < 300 nM | > 90% |
| C=CC(=O)N1CC2(CCN(c3nc(N4CC(CC#N)(N(C)CCOC)C4)nc4c(OCC(F)(F)F)c(-c5c(C)ccc6[nH]ncc56)c(C5CC5)cc34)CC2)C1 [Compound 53] | < 300 nM | > 90% |
| C=CC(=O)N1CC2(CCN(c3nc(N4CC(N5CCC6(CC5)CC6)C4)nc4c(OCC(F)(F)F)c(-c5c(C)ccc6[nH]ncc56)c(C5CC5)cc34)CC2)C1 [Compound 36] | 300 to 1000 nM | 50 to 90% |
| C=CC(=O)N1CC2(CCN(c3nc(N4CC5(C=CCN5C)C4)nc4c(OCC(F)(F)F)c(-c5c(C)ccc6[nH]ncc56)c(C5CC5)cc34)CC2)C1 [Compound 127] | < 300 nM | > 90% |
| C=CC(=O)N1CC2(CCN(c3nc(N4CC(CO)C4)nc4c(OCC(F)(F)F)c(-c5c(C)ccc6[nH]ncc56)c(C5CC5)cc34)CC2)C1 [Compound 3] | 300 to 1000 nM | 50 to 90% |
| C=CC(=O)N1CC2(CCN(c3nc(N4CC(CC#N)(N(C)CCO)C4)nc4c(OCC(F)(F)F)c(-c5c(C)ccc6[nH]ncc56)c(C5CC5)cc34)CC2)C1 [Compound 52] | < 300 nM | > 90% |
| C=CC(=O)N1CC2(CCN(c3nc(N4CC5(CC5)C4)nc4c(OCC(F)(F)F)c(-c5c(C)ccc6[nH]ncc56)c(C5CC5)cc34)CC2)C1 [Compound 65] | 300 to 1000 nM | 50 to 90% |
| C=CC(=O)N1CC2(CCN(c3nc(N4CC5(CC(O)CN5C)C4)nc4c(OCC(F)(F)F)c(-c5c(C)ccc6[nH]ncc56)c(C5CC5)cc34)CC2)C1 (stereo not shown) [Compound 121] | < 300 nM | > 90% |
| C=CC(=O)N1CC2(CCN(c3nc(N4CC(N(C)CCO)C4)nc4c(OCC(F)(F)F)c(-c5c(C)ccc6[nH]ncc56)c(C5CC5)cc34)CC2)C1 [Compound 21] | < 300 nM | > 90% |
| C=CC(=O)N1CC2(CCN(c3nc(N4CC5(CCCCN5CCOC)C4)nc4c(OCC(F)(F)F)c(-c5c(C)ccc6[nH]ncc56)c(C5CC5)cc34)CC2)C1 [Compound 76] | < 300 nM | > 90% |
| C=CC(=O)N1CC2(CCN(c3nc(N4CC(C(=O)N5CC6(CN(C)C6)C5)C4)nc4c(OCC(F)(F)F)c(-c5c(C)ccc6[nH]ncc56)c(C5CC5)cc34)CC2)C1 [Compound 48] | 300 to 1000 nM | 50 to 90% |
| C=CC(=O)N1CC2(CCN(c3nc(N4CC5(CN(CCOC)CCO5)C4)nc4c(OCC(F)(F)F)c(-c5c(C)ccc6[nH]ncc56)c(C5CC5)cc34)CC2)C1 [Compound 82] | < 300 nM | > 90% |
| C=CC(=O)N1CC2(CCN(c3nc(N4CC(N5CC6(CC6)C5)C4)nc4c(OCC(F)(F)F)c(-c5c(C)c(F)cc6[nH]ncc56)c(C5CC5)cc34)CC2)C1 [Compound 104] | < 300 nM | > 90% |
| C=CC(=O)N1CC2(CCN(c3nc(N4CCC5(CCN5C)C4)nc4c(OCC(F)(F)F)c(-c5c(C)ccc6[nH]ncc56)c(C5CC5)cc34)CC2)C1 (stereo not shown) [Compound 77] | < 300 nM | > 90% |
| C=CC(=O)N1CC2(CCN(c3nc(N4CC(N5CC6(COC6)C5)C4)nc4c(OCC(F)(F)F)c(-c5c(C)ccc6[nH]ncc56)c(C5CC5)cc34)CC2)C1 [Compound 30] | < 300 nM | > 90% |
| C=CC(=O)N1CC2(CCN(c3nc(N4CC(N5CCC6(CC6)C5)C4)nc4c(OCC(F)(F)F)c(-c5c(C)ccc6[nH]ncc56)c(C5CC5)cc34)CC2)C1 [Compound 35] | < 300 nM | > 90% |
| C=CC(=O)N1CCC2(CC1)CN(c1nc(N3CC(N4CC5(CC5)C4)C3)nc3c(OCC(F)(F)F)c(-c4c(C)ccc5[nH]ncc45)c(C4CC4)cc13)C2 [Compound 102] | < 300 nM | > 90% |
| C=CC(=O)N1CC2(CCN(c3nc(N4CC(N5CC6(CC6)C5)C4)nc4c(OCC(F)(F)F)c(-c5c(F)ccc6cn[nH]c56)c(C5CC5)cc34)CC2)C1 [Compound 110] | < 300 nM | > 90% |
| C=CC(=O)N1CC2(CCN(c3nc(N4CCC5(CCN5CCOC)C4)nc4c(OCC(F)(F)F)c(-c5c(C)ccc6[nH]ncc56)c(C5CC5)cc34)CC2)C1 (stereo not shown) [Compound 78] | < 300 nM | > 90% |
| C=CC(=O)N1CC2(CCN(c3nc(N4CC(CN(C)CCO)C4)nc4c(OCC(F)(F)F)c(-c5c(C)ccc6[nH]ncc56)c(C5CC5)cc34)CC2)C1 [Compound 4] | < 300 nM | > 90% |
